Measured values taken from EP0408806A1, “Antihypercholesterolemic agents” (MERCK & CO. INC., priority 1989, dated 1991).

Biological target: T1, HMG-CoA reductase (Rattus norvegicus, UniProt P51639)
T1 sequence (P51639 1-887): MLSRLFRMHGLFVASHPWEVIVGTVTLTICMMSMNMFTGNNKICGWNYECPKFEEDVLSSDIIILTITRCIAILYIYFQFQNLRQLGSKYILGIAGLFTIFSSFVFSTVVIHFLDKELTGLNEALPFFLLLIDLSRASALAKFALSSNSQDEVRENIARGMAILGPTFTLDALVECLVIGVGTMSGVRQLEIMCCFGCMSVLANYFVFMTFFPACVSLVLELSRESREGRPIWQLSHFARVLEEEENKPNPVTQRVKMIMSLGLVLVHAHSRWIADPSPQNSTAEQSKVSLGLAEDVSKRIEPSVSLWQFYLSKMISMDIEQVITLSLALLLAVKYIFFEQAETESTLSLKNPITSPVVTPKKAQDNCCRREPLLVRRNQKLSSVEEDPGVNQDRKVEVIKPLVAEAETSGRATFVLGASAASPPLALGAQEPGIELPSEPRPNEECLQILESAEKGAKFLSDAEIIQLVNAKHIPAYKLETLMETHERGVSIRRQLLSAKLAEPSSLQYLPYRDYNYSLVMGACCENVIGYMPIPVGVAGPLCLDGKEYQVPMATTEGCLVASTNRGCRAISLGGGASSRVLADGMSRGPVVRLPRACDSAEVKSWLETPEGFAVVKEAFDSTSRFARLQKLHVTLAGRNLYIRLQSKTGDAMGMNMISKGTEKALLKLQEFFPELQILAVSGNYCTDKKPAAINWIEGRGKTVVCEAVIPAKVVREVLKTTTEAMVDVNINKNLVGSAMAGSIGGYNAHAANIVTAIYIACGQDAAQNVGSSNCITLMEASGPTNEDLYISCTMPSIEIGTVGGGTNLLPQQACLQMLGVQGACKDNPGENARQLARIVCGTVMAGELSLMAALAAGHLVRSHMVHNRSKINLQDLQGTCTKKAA
Assay: intrinsic HMG-CoA reductase inhibition, in vitro protocol published in J. Med. Chem., 28, p. 347-358 (1985)
Format: biochemical
Settings: read-out: IC₅₀ value (converted)
Procedure: The intrinsic HMG-CoA reductase inhibition activity of the claimed compounds is measured in the in vitro protocol published in J. Med. Chem., 28, p. 347-358 (1985).

## CCC(C)(C)C(=O)OC1CC(C)=CC2=CC(=O)C(C)C(CCC3CC(O)CC(=O)O3)C21 [6(R)-[2-[8(S)-(2,2-dimethylbutyryloxy)-2(S),6-dimethyl-3-oxo-1,2,7,8,8a(R)-pentahydronaphthyl-1(S)]ethyl]-4(R)-hydroxy-3,4,5,6-tetrahydro-2H-pyran-2-one]
  IC50: 4.62 nM
